Data set [1] in a line: Estimation of plasma levels after ip application (UHPLC-MS/MS). Particulars: mouse plasma. It is filed as in vivo, mice. The method, then:
At each time point, mice were euthanized and blood samples (500–800 μL) were collected and compiled into ethylenediaminetetraacetic acid (EDTA)-coated microtubes (1.6 mg of EDTA/sample) and centrifuged at 12 000 rpm for 5 min at 4 °C. Plasma samples were transferred into 1.5 mL tubes and stored at −80 °C until analysis.
Plasma calibrators were prepared by spiking corresponding stock solutions into a blank plasma sample.
Samples were vortexed at 1400 rpm for 10 min and then centrifuged at 13200g for 20 min at 10 °C. The supernatant was transferred into a 96-deep-well plate for drying under nitrogen gas flow (Evaporex EVX-96, Apricot Designs, Monrovia, CA) and redissolved in 200 μL of injection solvent (65% 10 mM ammonium formate + 0.05% formic acid, 35% acetonitrile + 0.05% formic acid) before MS/MS analysis.
Separation was performed at 55 °C on a Kinetex XB-C18 column, 100 × 2.1 mm, 1.7 μm particle size (Phenomenex; Torrance, CA); mobile phase of (A) 0.05% formic acid in 10 mM ammonium formate and (B) 0.05% formic acid in ACN, gradient 40% B for 1 min, linear gradient to reach 88% B after 5.3 min, shifted to 100% B for 1 min, and back to equilibrium condition of 40% B for 0.7 min; flow rate of 0.5 mL/min; total run time of 7 min. Sample injected volume was 1 μL and autosampler was set at 10 °C. Needle wash solution was MeOH/ACN/IPA/H2O (1:1:1:1 v/v/v/v). Flexible cube was set at a flow rate of 1 mL/min for 20 s.

In a further data set the target is T1, α1β3γ2S GABAA receptors (Homo sapiens, UniProt P14867+P28472).
T1 construct: expressed in transfected cells; host or cells: Xenopus laevis oocytes injected with cRNA (pCMV cDNA templates)
T1 sequence (P14867 28-456): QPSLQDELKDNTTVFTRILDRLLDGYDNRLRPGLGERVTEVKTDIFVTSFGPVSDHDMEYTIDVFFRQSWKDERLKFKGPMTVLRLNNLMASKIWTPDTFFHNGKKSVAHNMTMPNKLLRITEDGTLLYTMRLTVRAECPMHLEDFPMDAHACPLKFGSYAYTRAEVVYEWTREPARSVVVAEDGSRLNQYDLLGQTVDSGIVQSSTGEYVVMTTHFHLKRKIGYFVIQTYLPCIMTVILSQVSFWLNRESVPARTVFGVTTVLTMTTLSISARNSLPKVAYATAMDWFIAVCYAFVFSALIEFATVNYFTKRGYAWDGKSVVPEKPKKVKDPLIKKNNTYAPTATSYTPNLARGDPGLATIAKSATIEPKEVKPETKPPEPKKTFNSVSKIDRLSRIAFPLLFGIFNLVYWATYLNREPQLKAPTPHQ
T1 sequence (P28472 26-473): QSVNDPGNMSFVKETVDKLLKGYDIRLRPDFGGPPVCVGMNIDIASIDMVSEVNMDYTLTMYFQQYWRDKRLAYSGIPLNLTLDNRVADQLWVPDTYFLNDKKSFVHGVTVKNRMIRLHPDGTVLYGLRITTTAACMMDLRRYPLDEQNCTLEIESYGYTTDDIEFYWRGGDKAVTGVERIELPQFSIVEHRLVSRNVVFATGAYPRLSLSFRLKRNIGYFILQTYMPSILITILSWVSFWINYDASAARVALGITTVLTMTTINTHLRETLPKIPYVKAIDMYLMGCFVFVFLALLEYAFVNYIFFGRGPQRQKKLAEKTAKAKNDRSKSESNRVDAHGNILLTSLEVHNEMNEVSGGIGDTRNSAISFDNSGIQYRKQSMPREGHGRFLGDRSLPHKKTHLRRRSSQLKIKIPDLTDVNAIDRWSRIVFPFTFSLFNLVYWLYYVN
T1 sequence (P18507 40-467 isoform P18507-1 partner limits assumed): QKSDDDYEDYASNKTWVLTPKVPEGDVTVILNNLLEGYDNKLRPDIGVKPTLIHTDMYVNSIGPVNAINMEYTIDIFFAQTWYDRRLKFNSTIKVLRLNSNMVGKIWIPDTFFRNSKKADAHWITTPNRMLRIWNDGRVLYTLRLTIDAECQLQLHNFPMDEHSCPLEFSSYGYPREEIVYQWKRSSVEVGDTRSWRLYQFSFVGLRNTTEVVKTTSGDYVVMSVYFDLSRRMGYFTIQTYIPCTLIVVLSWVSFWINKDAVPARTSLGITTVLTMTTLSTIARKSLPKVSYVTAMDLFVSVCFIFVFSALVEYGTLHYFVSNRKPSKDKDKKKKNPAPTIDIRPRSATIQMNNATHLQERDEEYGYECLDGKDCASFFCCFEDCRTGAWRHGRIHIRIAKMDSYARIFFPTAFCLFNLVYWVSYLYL
The data set is described as follows: Two-microelectrode voltage clamp, IGABA modulation, α1β3γ2S. The note with it: for nH: Hill coefficient. It is filed as cell-based. The method, then: Preparation of stage V–VI oocytes from X. laevis and synthesis of capped runoff poly(A) cRNA transcripts from linearized cDNA templates (pCMV vector) was performed as previously described.[49] Female X. laevis frogs (Nasco) were anesthetized by 15 min incubation in a 0.2% MS-222 (methanesulfonate salt of 3-aminobenzoic acid ethyl ester; Sigma–Aldrich, Vienna, Austria) solution before removal of parts of the ovaries. Follicle membranes from isolated oocytes were enzymatically digested with 2 mg/mL collagenase (type 1A, Sigma–Aldrich, Vienna, Austria).
Selected oocytes were injected with 10–50 nL of DEPC-treated water (diethyl pyrocarbonate, Sigma, Vienna, Austria) containing the different GABAA cRNAs at a concentration of approximately 300–3000 pg·nL^–1·subunit^–1.
To ensure expression of the γ2S subunit in the case of α1/2/3/5β2/3γ2S receptors, cRNAs were mixed in a ratio of 1:1:10. For expression of receptors composed of α4β2γ2S and α1β1γ2S, cRNAS were mixed in a ratio of 3:1:10. The amount of cRNAs was determined by means of a NanoDrop ND-1000 (Kisker-Biotech, Steinfurt, Germany).
Oocytes were stored at +18 °C in modified ND96 solution (90 mM NaCl, 1 mM CaCl2, 1 mM KCl, 1 mM MgCl2·6H2O, and 5 mM HEPES [4-(2-hydroxyethyl)-1-piperazineethanesulfonic acid], pH 7.4, all from Sigma–Aldrich, Vienna, Austria).
Chloride currents through GABAA receptors (IGABA) were measured at room temperature (+21 ± 1 °C) by means of a two-microelectrode voltage clamp technique making use of a Turbo TEC-05X amplifier (npi electronic, Tamm, Germany). IGABA were elicited at a holding potential of –70 mV. Data acquisition was carried out by means of an Axon Digidata 1322A interface using pCLAMP v.10 (Molecular Devices, Sunnyvale, CA). The modified ND96 solution was used as bath solution. Microelectrodes were filled with 2 M KCl and had resistances between 1 and 3 MΩ.
GABA and the studied derivatives were applied by means of the ScreeningTool (npi electronic, Tamm, Germany) fast perfusion system as described previously.[50] To elicit IGABA, the chamber was perfused with 120 μL of GABA- or compound-containing solution at a volume rate of 300 μL/s.[34] Care was taken to account for possible slow recovery from increasing levels of desensitization in the presence of high drug concentrations. The duration of washout periods was therefore extended from 1.5 min (<10 μM compounds) to 30 min (≥10 μM compounds). […]
Stimulation of chloride currents by modulators of the GABAA receptor was measured at a GABA concentration eliciting between 3% and 7% of the maximal current amplitude (EC3–7). The GABA EC3–7 was determined for each oocyte individually. […] Statistical significance was calculated by paired Student t-test with a confidence interval of <0.05.

Data on 2 compounds can be found in publication PMC4106271 (Journal of Medicinal Chemistry, 2014).

Broadly, the EC50 is the concentration that produces a half-maximal response. Take `CCCN(CCC)C(=O)/C=C/C=C/c1ccc2c(c1)OCO2` [Compound 23, (2E,4E)-5-(1,3-benzodioxol-5-yl)-N,N-dipropyl-2,4-pentadienamide]: the “mean plasma concn” value in data set [1] (1 mg/kg body weight ip) is recorded as 60.6 ± 14.5 ng/mL; in data set [1] (3 mg/kg body weight ip), 194.0 ± 50.2 ng/mL; in data set [1] (10 mg/kg body weight ip), 593.0 ± 92.4 ng/mL. Besides, on α1β3γ2S GABAA receptors, the concentration giving a half-maximal response (EC50) is 34.7 ± 5.7 µM. The same compound showed a nH on α1β3γ2S GABAA receptors of 1.9 ± 0.2.

At α1β3γ2S GABAA receptors, `CCCCN(CCCC)C(=O)/C=C/C=C/c1ccc2c(c1)OCO2` [Compound 25, (2E,4E)-5-(1,3-Benzodioxol-5-yl)-N,N-dibutyl-2,4-pentadienamide] yielded an EC50 of 29.5 ± 2.9 µM and a nH of 1.5 ± 0.1.
